According to patent US7179597B2, “Genetic diagnosis for QT prolongation related adverse drug reactions” (Georgetown University, priority 2000, dated 2007):
Entries after “also recorded” stand apart in the source; their conditions may differ. Read-outs that look alike come from different tables or passages of the source.

How the values were obtained:
CYP1A2 = molecular target: T1, CYP1A2 (Homo sapiens, UniProt P05177); conditions: Table 3; cited from earlier work
T1 sequence (P05177 1-516): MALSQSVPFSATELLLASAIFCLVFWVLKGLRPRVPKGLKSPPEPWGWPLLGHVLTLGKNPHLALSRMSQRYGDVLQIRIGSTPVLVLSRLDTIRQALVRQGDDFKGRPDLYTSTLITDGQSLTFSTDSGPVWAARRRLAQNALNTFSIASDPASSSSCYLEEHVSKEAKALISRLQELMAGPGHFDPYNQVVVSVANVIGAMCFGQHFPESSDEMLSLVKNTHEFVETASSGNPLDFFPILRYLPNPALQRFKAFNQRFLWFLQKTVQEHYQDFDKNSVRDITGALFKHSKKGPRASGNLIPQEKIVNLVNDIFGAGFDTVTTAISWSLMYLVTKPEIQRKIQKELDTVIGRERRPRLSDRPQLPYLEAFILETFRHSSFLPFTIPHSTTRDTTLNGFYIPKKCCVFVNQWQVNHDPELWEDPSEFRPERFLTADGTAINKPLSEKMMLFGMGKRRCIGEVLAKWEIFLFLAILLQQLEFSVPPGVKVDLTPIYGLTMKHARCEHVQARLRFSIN

CYP2C19 = CYP2C19 (Homo sapiens, UniProt P33261); conditions: Table 3; cited from earlier work
Sequence of CYP2C19 (P33261 whole entry): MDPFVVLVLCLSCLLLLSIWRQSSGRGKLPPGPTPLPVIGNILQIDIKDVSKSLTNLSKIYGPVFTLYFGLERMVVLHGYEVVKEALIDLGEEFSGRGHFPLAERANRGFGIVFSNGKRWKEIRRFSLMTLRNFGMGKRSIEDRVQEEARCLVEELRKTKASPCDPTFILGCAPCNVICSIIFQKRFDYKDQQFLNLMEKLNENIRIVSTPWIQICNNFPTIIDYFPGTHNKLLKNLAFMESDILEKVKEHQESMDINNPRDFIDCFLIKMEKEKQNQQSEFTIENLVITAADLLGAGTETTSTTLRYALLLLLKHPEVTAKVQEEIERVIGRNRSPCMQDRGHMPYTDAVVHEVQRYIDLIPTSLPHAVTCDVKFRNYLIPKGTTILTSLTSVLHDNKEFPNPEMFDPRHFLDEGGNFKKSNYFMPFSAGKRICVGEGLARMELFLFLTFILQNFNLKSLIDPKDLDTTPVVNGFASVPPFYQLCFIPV

[1] = cited from earlier work
CYP2C9 = CYP2C9 (Homo sapiens, UniProt P11712); conditions: Table 3; cited from earlier work
Sequence of CYP2C9 (P11712 whole entry): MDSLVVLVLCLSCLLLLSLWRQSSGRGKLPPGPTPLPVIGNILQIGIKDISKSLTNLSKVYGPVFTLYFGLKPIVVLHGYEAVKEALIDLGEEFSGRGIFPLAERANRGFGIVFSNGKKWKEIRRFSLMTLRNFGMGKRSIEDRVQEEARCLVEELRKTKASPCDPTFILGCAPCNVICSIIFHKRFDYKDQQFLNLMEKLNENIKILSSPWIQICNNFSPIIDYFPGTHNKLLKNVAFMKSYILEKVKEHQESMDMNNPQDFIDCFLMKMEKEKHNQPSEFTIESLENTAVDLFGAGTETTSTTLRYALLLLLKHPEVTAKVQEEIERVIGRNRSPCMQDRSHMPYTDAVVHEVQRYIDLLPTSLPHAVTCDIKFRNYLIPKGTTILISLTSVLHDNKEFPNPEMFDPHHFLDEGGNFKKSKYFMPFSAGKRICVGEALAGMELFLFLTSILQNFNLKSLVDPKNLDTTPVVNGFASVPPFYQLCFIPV

CYP2D6 = CYP2D6 (Homo sapiens, UniProt P10635); conditions: Table 3, cited from earlier work
Sequence of CYP2D6 (P10635 whole entry): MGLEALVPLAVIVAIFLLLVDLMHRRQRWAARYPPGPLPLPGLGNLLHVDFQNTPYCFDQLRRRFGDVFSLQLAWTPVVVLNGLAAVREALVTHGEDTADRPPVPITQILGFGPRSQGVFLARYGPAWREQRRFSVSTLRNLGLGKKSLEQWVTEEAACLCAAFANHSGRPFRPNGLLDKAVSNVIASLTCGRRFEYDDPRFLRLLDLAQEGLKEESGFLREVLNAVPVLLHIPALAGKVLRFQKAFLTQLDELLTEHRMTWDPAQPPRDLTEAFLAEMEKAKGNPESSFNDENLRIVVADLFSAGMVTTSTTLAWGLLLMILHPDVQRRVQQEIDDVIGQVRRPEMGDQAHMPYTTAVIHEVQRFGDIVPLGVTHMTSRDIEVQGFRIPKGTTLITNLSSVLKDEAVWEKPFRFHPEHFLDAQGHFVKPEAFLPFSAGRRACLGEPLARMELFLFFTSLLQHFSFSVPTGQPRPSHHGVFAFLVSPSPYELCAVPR

[2] = cited from earlier work; remark: listed apart in the source
CYP3A = conditions: Table 3; cited from earlier work
IKr = molecular target: T2, IKr (Oryctolagus cuniculus, UniProt Q8WNY2); conditions: superfusion with 1–2.5 μmol/L (Liu et al. 1998); cited from earlier work
T2 sequence (Q8WNY2 1-1161): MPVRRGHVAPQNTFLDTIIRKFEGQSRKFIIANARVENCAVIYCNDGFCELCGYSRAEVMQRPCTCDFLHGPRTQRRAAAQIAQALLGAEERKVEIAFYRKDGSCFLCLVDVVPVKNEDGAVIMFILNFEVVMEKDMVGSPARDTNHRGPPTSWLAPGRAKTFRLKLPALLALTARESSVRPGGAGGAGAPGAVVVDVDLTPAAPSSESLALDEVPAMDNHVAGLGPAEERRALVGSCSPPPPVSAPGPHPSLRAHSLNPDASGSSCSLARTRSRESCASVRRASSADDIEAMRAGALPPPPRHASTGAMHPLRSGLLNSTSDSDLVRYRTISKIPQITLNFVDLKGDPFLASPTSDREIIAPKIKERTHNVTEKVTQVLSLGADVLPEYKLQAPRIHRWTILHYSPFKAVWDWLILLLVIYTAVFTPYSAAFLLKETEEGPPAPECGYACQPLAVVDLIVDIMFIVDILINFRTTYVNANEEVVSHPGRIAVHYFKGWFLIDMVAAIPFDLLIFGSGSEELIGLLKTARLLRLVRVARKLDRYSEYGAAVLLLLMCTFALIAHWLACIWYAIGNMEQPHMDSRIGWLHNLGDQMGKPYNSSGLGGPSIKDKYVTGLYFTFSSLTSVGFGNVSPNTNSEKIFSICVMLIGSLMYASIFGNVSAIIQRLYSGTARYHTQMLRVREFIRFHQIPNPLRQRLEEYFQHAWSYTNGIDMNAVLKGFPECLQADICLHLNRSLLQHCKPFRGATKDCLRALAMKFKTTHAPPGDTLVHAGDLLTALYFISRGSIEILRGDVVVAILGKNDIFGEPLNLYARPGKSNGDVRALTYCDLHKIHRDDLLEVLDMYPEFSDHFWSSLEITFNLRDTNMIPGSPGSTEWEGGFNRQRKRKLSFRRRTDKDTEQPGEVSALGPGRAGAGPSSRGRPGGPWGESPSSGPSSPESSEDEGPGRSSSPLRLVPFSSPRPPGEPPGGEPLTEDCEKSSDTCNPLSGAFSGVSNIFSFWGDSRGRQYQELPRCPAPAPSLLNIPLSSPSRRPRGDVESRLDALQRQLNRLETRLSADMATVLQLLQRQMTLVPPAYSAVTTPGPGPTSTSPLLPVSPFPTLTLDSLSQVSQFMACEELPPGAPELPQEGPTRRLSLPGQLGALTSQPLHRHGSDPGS

Ito = experiment: Whole-cell voltage clamp of transient outward current Ito in rabbit ventricular myocytes; format: cell-based; conditions: 5 μmol/L, 5 minutes superfusion
IK1 = experiment: Whole-cell voltage clamp of inward rectifier IK1 in rabbit ventricular myocytes; format: cell-based; conditions: 5 μmol/L, 5 minutes
[3] = test system: cultured neonatal rat cardiomyocytes; experiment: Spontaneous beating rate of cultured neonatal rat cardiomyocytes; format: cell-based; design: Reduction in beating rate / Maximum inhibition of beating activity, drug alone: dose or concentration left out as unconfirmed
Description: Delayed rectifier potassium channels are important components of cardiac repolarization. There are two major delayed rectifier potassium currents, IKr (rapid component) and IKs (slow component). Drugs that block these currents, particularly IKr, slow cardiac repolarization and increase the risk of developing potentially fatal cardiac arrhythmias such as Torsades de Pointes. Moreover, mutations in the genes encoding for delayed rectifier potassium channel proteins have been linked to long QT syndrome, a condition seen in patients at high risk for developing Torsades de Pointes cardiac arrhythmias and sudden death. […] Recently, however, a new compound, chromanol 293B, has been reported to be a relatively selective blocker of IKs (Busch et al., Pflug. Arch. 432: 1094–6 (1996)). In the present report, we have tested this compound using spontaneously beating cultures of neonatal rat cardiomyocytes.
In addition to the different electrophysiological properties of IKr versus IKs that have been described by others, these currents can be distinguished pharmacologically (Sanguinetti et al., J. Gen. Physiol. 96: 195–215 (1990)). […] To determine if pharmacological blockade of delayed rectifier potassium currents influences the spontaneous beating rate of cultured neonatal rat cardiomyocytes, a dose-response curve was generated for chromanol 293B.

P-gp = P-gp (Homo sapiens, UniProt P08183); conditions: Atadja et al. 1998; cited from earlier work
L-type ICa = L-type ICa (Oryctolagus cuniculus, UniProt P15381); conditions: 10 μmol/L
Sequence of L-type ICa (P15381 whole entry, other chains not shown): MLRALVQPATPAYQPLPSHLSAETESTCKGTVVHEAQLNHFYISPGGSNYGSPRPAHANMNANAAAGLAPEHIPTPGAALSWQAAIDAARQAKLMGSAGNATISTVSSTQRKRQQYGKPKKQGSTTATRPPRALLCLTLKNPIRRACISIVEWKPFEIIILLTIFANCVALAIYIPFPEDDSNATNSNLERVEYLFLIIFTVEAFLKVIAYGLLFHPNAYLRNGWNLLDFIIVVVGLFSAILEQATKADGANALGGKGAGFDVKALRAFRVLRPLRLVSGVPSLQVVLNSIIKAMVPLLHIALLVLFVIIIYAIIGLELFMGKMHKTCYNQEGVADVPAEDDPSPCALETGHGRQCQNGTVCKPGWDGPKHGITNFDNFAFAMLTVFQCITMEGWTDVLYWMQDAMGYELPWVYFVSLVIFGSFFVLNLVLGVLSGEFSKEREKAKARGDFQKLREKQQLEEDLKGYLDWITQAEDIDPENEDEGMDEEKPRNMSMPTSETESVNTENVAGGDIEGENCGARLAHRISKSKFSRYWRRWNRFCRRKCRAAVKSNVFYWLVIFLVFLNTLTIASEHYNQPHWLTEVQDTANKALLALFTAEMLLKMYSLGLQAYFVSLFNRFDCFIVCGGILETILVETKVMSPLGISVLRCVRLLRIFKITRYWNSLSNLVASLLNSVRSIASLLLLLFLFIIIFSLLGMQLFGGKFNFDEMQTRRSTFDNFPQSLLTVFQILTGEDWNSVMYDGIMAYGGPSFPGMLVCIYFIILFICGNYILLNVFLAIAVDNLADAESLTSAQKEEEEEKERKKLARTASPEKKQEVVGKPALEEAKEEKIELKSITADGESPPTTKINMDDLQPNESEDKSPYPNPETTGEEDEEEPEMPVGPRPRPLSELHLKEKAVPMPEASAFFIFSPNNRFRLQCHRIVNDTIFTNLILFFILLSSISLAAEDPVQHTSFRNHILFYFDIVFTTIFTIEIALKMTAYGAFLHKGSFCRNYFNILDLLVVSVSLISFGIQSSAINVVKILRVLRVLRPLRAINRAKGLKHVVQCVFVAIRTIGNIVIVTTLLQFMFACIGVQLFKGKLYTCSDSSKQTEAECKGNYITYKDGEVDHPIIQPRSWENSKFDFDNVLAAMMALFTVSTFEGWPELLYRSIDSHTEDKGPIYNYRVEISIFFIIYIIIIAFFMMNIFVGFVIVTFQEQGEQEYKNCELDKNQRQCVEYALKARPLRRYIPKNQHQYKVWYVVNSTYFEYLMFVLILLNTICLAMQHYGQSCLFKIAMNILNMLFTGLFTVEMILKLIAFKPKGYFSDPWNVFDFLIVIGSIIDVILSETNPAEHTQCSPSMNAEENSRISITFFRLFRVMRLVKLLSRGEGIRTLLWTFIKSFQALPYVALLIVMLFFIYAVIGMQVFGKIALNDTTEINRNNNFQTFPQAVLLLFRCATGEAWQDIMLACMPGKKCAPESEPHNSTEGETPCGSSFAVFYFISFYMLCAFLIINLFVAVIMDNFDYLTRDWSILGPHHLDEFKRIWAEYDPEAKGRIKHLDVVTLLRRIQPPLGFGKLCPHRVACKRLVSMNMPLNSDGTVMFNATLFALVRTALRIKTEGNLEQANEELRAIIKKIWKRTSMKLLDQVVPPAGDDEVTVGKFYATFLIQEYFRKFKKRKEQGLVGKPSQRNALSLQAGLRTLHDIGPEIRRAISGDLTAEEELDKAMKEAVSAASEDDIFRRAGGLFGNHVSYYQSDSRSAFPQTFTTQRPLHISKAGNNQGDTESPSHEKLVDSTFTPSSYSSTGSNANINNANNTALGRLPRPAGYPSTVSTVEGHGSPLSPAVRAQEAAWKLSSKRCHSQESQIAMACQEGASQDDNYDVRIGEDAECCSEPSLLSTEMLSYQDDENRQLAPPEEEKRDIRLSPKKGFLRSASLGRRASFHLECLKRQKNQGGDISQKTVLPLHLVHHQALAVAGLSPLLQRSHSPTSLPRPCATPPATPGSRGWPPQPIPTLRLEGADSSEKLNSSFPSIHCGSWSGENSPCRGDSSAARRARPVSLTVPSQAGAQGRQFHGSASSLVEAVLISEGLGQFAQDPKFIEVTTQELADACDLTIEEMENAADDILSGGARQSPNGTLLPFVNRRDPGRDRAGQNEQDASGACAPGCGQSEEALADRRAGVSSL
Sequence of L-type ICa (P13806 27-1106 partner, other chains not shown): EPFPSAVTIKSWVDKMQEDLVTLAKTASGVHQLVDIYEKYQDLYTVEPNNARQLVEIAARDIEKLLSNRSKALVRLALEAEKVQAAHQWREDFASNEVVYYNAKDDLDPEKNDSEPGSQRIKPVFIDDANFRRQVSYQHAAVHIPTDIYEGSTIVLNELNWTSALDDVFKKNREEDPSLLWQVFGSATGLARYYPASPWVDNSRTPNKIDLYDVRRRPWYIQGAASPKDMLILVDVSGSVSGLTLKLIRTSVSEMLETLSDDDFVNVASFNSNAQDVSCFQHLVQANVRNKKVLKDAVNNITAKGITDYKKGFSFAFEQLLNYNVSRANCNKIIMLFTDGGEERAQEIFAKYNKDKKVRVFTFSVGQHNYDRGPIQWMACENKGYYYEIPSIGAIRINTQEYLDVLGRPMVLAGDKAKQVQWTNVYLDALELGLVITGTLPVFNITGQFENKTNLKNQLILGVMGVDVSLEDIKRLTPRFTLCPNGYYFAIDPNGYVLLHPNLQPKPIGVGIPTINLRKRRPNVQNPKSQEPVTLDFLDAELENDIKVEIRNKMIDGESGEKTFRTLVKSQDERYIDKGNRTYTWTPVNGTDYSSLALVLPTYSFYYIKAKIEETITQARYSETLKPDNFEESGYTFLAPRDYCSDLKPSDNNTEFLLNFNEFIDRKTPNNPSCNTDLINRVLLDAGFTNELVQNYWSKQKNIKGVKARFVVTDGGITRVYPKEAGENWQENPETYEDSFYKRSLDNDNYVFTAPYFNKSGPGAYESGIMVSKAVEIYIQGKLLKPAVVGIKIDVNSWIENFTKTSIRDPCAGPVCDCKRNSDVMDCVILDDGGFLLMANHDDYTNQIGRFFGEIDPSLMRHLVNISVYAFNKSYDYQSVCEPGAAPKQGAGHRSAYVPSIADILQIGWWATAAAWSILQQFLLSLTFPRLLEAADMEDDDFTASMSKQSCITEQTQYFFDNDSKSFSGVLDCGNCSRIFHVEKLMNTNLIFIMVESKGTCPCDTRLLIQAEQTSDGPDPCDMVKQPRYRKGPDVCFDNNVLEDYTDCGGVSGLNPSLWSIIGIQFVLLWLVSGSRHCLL

[4] = test system: rabbit ventricular myocytes; conditions: 3.3 μmol/L, about 4–5 min; before drug 341±49 ms; n=16, p>0.05
IKs = conditions: cited from earlier work

SMILES: CN(C)CCCN1c2ccccc2CCc2ccc(Cl)cc21 [Clomipramine]
- Interactions: cytochrome P-450 isoform 1A2, substrate or inhibitor (CYP1A2): Substrate
- Interactions: cytochrome P-450 isoform 2C19, substrate or inhibitor (CYP2C19): Substrate

SMILES: CN(C)CCC=C1c2ccccc2CCc2ccccc21 [Amitriptyline]
- TdP ([1]; Table 2, FDA / medical literature): Yes
- TdP ([1]; Table 3): Yes
- Interactions: cytochrome P-450 isoform 2C9, substrate or inhibitor (CYP2C9): Substrate
- Interactions: cytochrome P-450 isoform 2D6, substrate or inhibitor (CYP2D6): Substrate
- QT ([2]; Table 2, drug labeling): Yes
- QT ([2]; Table 3): Yes
- Interactions: cytochrome P-450 isoform 1A2, substrate or inhibitor (CYP1A2): Substrate
- Interactions: cytochrome P-450 isoform 2C19, substrate or inhibitor (CYP2C19): Substrate

SMILES: O=C(CCCN1CCC(O)(c2ccc(Cl)cc2)CC1)c1ccc(F)cc1 [Haloperidol]
- Interactions: cytochrome P-450 isoform 2D6, substrate or inhibitor (CYP2D6; CYP2D6 inhibitor): Inhibitor
- Interactions: cytochrome P-450 isoform 2D6, substrate or inhibitor (CYP2D6; CYP2D6 substrate): Substrate
- Interactions: cytochrome P-450 isoform 1A2, substrate or inhibitor (CYP1A2): Substrate
- Interactions: cytochrome P-450 isoform 3A, substrate or inhibitor (CYP3A): Substrate

SMILES: CN(CCOc1ccc(NS(C)(=O)=O)cc1)CCc1ccc(NS(C)(=O)=O)cc1 [dofetilide]
- Effect on IKr tail current (IKr): abolished

SMILES: Cc1cccc(CCN2CCC(C(=O)c3ccc(NS(C)(=O)=O)cc3)CC2)n1 [E-4031]
- Effect on transient outward current (Ito) (Ito): no effect; also recorded: without affecting
- Effect on IK1 outward (holding) current (IK1; at −40 mV): without affecting; also recorded: no effect
- Effect on IK1 inward current (IK1; recorded at −120 mV): little effect
- Maximum inhibition of beating activity, drug alone ([3]; 5–10 mnM E-4031 alone): 50%

SMILES: C/C=C/C[C@@H](C)C(=O)[C@H]1C(=O)N[C@@H](C(C)C)C(=O)N(C)CC(=O)N(C)[C@@H](CC(C)C)C(=O)N[C@@H](C(C)C)C(=O)N(C)[C@@H](CC(C)C)C(=O)N[C@@H](C)C(=O)N[C@H](C)C(=O)N(C)[C@@H](CC(C)C)C(=O)N(C)[C@@H](CC(C)C)C(=O)N(C)[C@@H](C(C)C)C(=O)N1C [PSC-833]
- Effect on P-gp (P-gp): potently and specifically inhibits

SMILES: CC/C(=C(\c1ccccc1)c1ccc(OCCN(C)C)cc1)c1ccccc1 [Tamoxifen]
- Inhibition of ICa (L-type ICa): almost complete inhibition; also recorded: marked inhibition
- APD measured at 90% repolarization (APD90) after superfusion [4]: 332 ± 19 ms

SMILES: CCS(=O)(=O)N(C)[C@H]1c2cc(C#N)ccc2OC(C)(C)[C@@H]1O (racemic) [chromanol 293B]
- Maximum inhibition of beating activity, drug alone ([3]; 293B alone): 50%
- Effect on spontaneous beating rate ([3]; dose-response curve): dose-dependent decrease in beating rate
- Reduction in beating rate ([3]; highest drug concentration tested, relative to control): about 50%
- Concentrations up to which IKs is selectively blocked (IKs; Busch et al. 1996): 10 to 30 µM
- Concentration required to achieve complete blockade of IKs (IKs; guinea pig ventricular myocytes (Busch et al. 1996)): 100 µM
